In patent US8093396B2, “Benzthiazole inhibitors of poly(ADP-ribose)polymerase” (Abbott Laboratories, priority 2009, dated 2012):

Biological target: PARP-1 (Homo sapiens, UniProt P09874)
Assay: Inhibition of PARP by Compounds Having Formula I
Type: biochemical

Sequence of PARP-1 (P09874 whole entry, species assumed): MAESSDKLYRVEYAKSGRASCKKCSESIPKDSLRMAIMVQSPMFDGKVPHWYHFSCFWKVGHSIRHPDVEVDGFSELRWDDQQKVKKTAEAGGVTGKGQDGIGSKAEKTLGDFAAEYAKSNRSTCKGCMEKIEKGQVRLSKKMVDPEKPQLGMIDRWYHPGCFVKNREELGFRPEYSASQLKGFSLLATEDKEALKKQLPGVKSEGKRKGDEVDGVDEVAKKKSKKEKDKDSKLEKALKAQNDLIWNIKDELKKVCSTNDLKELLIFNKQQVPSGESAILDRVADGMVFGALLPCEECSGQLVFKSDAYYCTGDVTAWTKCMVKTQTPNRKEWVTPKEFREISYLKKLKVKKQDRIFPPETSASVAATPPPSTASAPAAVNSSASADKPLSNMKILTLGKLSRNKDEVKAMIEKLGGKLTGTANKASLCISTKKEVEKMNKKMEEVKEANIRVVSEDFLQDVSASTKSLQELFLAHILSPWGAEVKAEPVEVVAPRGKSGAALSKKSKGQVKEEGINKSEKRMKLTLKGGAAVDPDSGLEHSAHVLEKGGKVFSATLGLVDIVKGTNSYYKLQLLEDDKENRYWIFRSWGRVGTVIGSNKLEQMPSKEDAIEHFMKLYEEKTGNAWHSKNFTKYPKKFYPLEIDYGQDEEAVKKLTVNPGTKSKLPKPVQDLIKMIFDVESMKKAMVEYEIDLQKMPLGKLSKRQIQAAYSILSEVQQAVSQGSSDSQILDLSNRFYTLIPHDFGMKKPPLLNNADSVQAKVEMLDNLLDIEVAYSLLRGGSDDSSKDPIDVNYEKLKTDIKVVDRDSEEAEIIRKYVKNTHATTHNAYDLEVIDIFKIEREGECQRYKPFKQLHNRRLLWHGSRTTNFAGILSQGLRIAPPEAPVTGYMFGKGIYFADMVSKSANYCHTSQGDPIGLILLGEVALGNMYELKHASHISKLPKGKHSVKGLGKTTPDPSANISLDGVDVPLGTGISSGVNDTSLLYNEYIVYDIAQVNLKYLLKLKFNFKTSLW

Row | Ki [µM] | SMILES
1 | 0.045 | NC(=O)c1cccc2sc(-c3ccc(OS(=O)(=O)C(F)(F)F)cc3)nc12 [Example 1, 4-[4-(aminocarbonyl)-1,3-benzothiazol-2-yl]phenyl trifluoromethanesulfonate]
2 | 0.0095 | NC(=O)c1cccc2sc(-c3ccc(-c4cccnc4)cc3)nc12 [Example 3, 2-(4-pyridin-3-ylphenyl)-1,3-benzothiazole-4-carboxamide]
3 | 0.026 | NC(=O)c1cccc2sc(-c3ccc(-c4ccncc4)cc3)nc12 [Example 4, 2-(4-pyridin-4-ylphenyl)-1,3-benzothiazole-4-carboxamide]
4 | 0.316 | NC(=O)c1cccc2sc(-c3ccc(-c4ccccc4)cc3)nc12 [Example 2, 2-(1,1′-biphenyl-4-yl)-1,3-benzothiazole-4-carboxamide]
